What was measured:
[1] = target: Tryptophan 2,3-dioxygenase (Rattus norvegicus, UniProt P21643); test: Compound was tested for inhibition of Tryptophan dioxygenase (TDO) from rat liver
Rattus norvegicus = species on record: Rattus norvegicus; test: Inhibition of 5-HT reuptake in rat […] was measured; format: functional, organism-based

Chain of Tryptophan 2,3-dioxygenase (P21643 whole entry): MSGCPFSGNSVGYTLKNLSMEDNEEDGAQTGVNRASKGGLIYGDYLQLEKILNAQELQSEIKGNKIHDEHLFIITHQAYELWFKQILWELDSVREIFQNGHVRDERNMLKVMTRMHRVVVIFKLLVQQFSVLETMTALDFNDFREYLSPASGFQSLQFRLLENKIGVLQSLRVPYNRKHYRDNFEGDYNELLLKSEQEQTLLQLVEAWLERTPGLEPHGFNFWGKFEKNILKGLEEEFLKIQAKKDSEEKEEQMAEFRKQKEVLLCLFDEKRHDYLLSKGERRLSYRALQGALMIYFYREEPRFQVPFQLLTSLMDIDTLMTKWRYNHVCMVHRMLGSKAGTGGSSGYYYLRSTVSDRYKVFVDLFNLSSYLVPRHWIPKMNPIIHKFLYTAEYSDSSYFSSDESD

SMILES	Ki [1] [µM]	IC50 (Rattus norvegicus) [µM]
C(=C\c1c[nH]c2ccccc12)/c1ccncc1	0.03	1.5
C(=C\c1c[nH]c2ccccc12)/c1cccnc1	0.04	–
Fc1ccc2[nH]cc(/C=C/c3ccncc3)c2c1	0.04	–

Results, then the compound that gave them:

Ki [1] [µM]	IC50 (Rattus norvegicus) [µM]	SMILES
0.03	0.9	Fc1ccc2c(/C=C/c3ccncc3)c[nH]c2c1
0.05	–	Fc1ccc2[nH]cc(/C=C/c3cccnc3)c2c1
0.03	–	Fc1ccc2c(/C=C/c3cccnc3)c[nH]c2c1
0.1	–	C(=C\c1c[nH]c2ccccc12)/c1ccccn1

— ChEMBL document CHEMBL1149922, “Novel tryptophan dioxygenase inhibitors and combined tryptophan dioxygenase/5-HT reuptake inhibitors” (Bioorg Med Chem Lett, 1996)
